Patent publication EP4685149A1, “NOVEL COMPOUND AS ENDOTHELIAL TO MESENCHYMAL TRANSITION (ENDMT) INHIBITOR, AND PHARMACEUTICAL COMPOSITION COMPRISING SAME” (Korea Institute of Radiological & Medical Sciences, priority 2023, dated 2024)
Where two headings read alike, the source gives them in different places.

System: human vascular endothelial cell lines
Assay: Inhibition of radiation-induced endothelial cell transition (EndMT), phalloidin immunofluorescence staining
Assay type: cell-based
Details: 10 uM test substance 1 hour before 10 Gy irradiation, 72 hours after irradiation, relative ratio with IR group (10 Gy alone) as 100%; for activity at 10 µM: Homo sapiens, Endothelial cell, light or radiation study
Experimental: Test substances (Examples 1 to 45) were treated with a 10 mM DMSO solution at a ratio of 1 µL per 1 mL of cell culture medium to a final concentration of 10 uM, and the test substances were treated 1 hour before irradiation on human vascular endothelial cell lines (Promocell, Germany), and then, it was irradiated at an intensity of 10 Gy. 72 hours after irradiation, the human vascular endothelial cell lines were fixed with 10% formalin, and the experiment was conducted according to the manufacturer's method using phalloidin (Invitrogen, USA) to confirm the cytoskeleton filaments that increase during fibrosis. Phalloidin is a protein that binds to the actin of cytoskeleton filaments, and phalloidin conjugated with FITC fluorescent substance made the cytoskeleton filaments appear green when observed under a microscope.
After treatment with the test substance, the area, length and density of phalloidin were measured by using a confocal microscope, and the relative ratio was expressed with the irradiated group (IR group) that was irradiated with 10 Gy alone as 100% (Table 1).

| Structure (SMILES) | activity at 10 µM (read-out: Palloidin Area) | activity at 10 µM (read-out: Palloidin Intensity) | activity at 10 µM (read-out: Palloidin Length) | Palloidin Length |
| --- | --- | --- | --- | --- |
| O[C@@H]1[C@H](O)CS[C@H]1n1cnc2c(N[C@@H]3CCc4cccc(Br)c43)nc(Cl)nc21 [Example 26, (2R,3R,4S)-2-[2-chloro-6-[[(1R)-7-bromoindan-1-yl]amino]purin-9-yl]tetrahydrothiophene-3,4-diol] | 20 to 50% | 50 to 80% | 50 to 80% | – |
| O[C@@H]1[C@H](O)CS[C@H]1n1cnc2c(N[C@@H]3CCc4cc(Br)ccc43)nc(Cl)nc21 [Example 20, (2R,3R,4S)-2-[2-chloro-6-[[(1R)-5-bromoindan-1-yl]amino]purin-9-yl]tetrahydrothiophene-3,4-diol] | < 20% | 20 to 50% | < 20% | – |
| CCCC#Cc1nc(N[C@H]2CCc3ccccc32)c2ncn([C@@H]3SC[C@@H](O)[C@H]3O)c2n1 [Example 6, (2R,3R,4S)-2-[6-[[(1S)-indan-1-yl]amino]-2-pent-1-ynyl-purin-9-yl]tetrahydrothiophene-3,4-diol] | 20 to 50% | 20 to 50% | – | ++^+ |
| O=C(O)c1cccc2c1CC[C@H]2Nc1nc(Cl)nc2c1ncn2[C@@H]1SC[C@@H](O)[C@H]1O [Example 32, (R)-1-((2-chloro-9-((2R,3R,4S)-3,4-dihydroxytetrahydrothiophen-2-yl)-9H-purin-6-yl)amino)-2,3-dihydro-1H-indene-4-carboxylic acid] | > 80% | > 80% | > 80% | – |
| O[C@@H]1[C@H](O)CS[C@H]1n1cnc2c(NC3CCc4ccccc4CC3)nc(Cl)nc21 [Example 43, (2R,3R,4S)-2-(2-chloro-6-((6,7,8,9-tetrahydro-5H-benzo[7]annulen-7-yl)amino)-9H-purin-9-yl)tetrahydrothiophene-3,4-diol] | > 80% | > 80% | > 80% | – |
| O[C@@H]1[C@H](O)CS[C@H]1n1cnc2c(N[C@@H]3CCc4ccccc4C3)nc(Cl)nc21 [Example 37, (2R,3R,4S)-2-(2-chloro-6-(((R)-1,2,3,4-tetrahydronaphthalen-2-yl)amino)-9H-purin-9-yl)tetrahydrothiophene-3,4-diol] | 50 to 80% | 50 to 80% | > 80% | – |
| O[C@@H]1[C@H](O)CS[C@H]1n1cnc2c(N[C@@H]3CCc4ccccc43)ncnc21 [Example 45, (2R,3R,4S)-2-(6-(((R)-2,3-dihydro-1H-inden-1-yl)amino)-9H-purin-9-yl)tetrahydrothiophene-3,4-diol] | > 80% | > 80% | > 80% | – |
| O[C@@H]1[C@H](O)CS[C@H]1n1cnc2c(N[C@H]3CCc4ccccc4C3)nc(Cl)nc21 [Example 36, (2R,3R,4S)-2-(2-chloro-6-(((S)-1,2,3,4-tetrahydronaphthalen-2-yl)amino)-9H-purin-9-yl)tetrahydrothiophene-3,4-diol] | > 80% | > 80% | > 80% | – |
| COc1cccc2c1CC[C@H]2Nc1nc(Cl)nc2c1ncn2[C@@H]1SC[C@@H](O)[C@H]1O [Example 11, (2R,3R,4S)-2-[2-chloro-6-[[(1R)-4-methoxyindan-1-yl]amino]purin-9-yl]tetrahydrothiophene-3,4-diol] | 20 to 50% | 20 to 50% | 20 to 50% | – |
| CC#Cc1nc(N[C@@H]2CCc3ccccc32)c2ncn([C@@H]3SC[C@@H](O)[C@H]3O)c2n1 [Example 1, (2R,3R,4S)-2-[6-[[(1R)-indan-1-yl]amino]-2-prop-1-ynyl-purin-9-yl]tetrahydrothiophene-3,4-diol] | 50 to 80% | 50 to 80% | > 80% | – |
| CCCC#Cc1nc(N[C@@H]2CCc3ccccc32)c2ncn([C@@H]3SC[C@@H](O)[C@H]3O)c2n1 [Example 5, (2R,3R,4S)-2-[6-[[(1R)-indan-1-yl]amino]-2-pent-1-ynyl-purin-9-yl]tetrahydrothiophene-3,4-diol] | 50 to 80% | 50 to 80% | 50 to 80% | – |
| O=C(O)c1ccc2c(c1)CC[C@H]2Nc1nc(Cl)nc2c1ncn2[C@@H]1SC[C@@H](O)[C@H]1O [Example 33, (R)-1-((2-chloro-9-((2R,3R,4S)-3,4-dihydroxytetrahydrothiophen-2-yl)-9H-purin-6-yl)amino)-2,3-dihydro-1H-indene-5-carboxylic acid] | > 80% | > 80% | > 80% | – |
| Cc1cccc2c1CC[C@H]2Nc1nc(Cl)nc2c1ncn2[C@@H]1SC[C@@H](O)[C@H]1O [Example 22, (2R,3R,4S)-2-[2-chloro-6-[[(1R)-4-methylindan-1-yl]amino]purin-9-yl]tetrahydrothiophene-3,4-diol] | < 20% | < 20% | – | + + + + |
| O[C@@H]1[C@H](O)CS[C@H]1n1cnc2c(NC3CCCc4ccccc43)nc(Cl)nc21 (stereo partly drawn) [Example 38, (2R,3R,4S)-2-(2-chloro-6-((1,2,3,4-tetrahydronaphthalen-1-yl)amino)-9H-purin-9-yl)tetrahydrothiophene-3,4-diol] | > 80% | > 80% | > 80% | – |
| O[C@@H]1[C@H](O)CS[C@H]1n1cnc2c(N[C@@H]3CCc4c(Cl)cccc43)nc(Cl)nc21 [Example 17, (2R,3R,4S)-2-[2-chloro-6-[[(1R)-4-chloroindan-1-yl]amino]purin-9-yl]tetrahydrothiophene-3,4-diol] | < 20% | < 20% | < 20% | – |
| O[C@@H]1[C@H](O)CS[C@H]1n1cnc2c(N[C@@H]3CCc4c(F)cccc43)nc(Cl)nc21 [Example 15, (2R,3R,4S)-2-[2-chloro-6-[[(1R)-4-fluoroindan-1-yl]amino]purin-9-yl]tetrahydrothiophene-3,4-diol] | < 20% | < 20% | < 20% | – |
| N#Cc1ccc2c(c1)CC[C@H]2Nc1nc(Cl)nc2c1ncn2[C@@H]1SC[C@@H](O)[C@H]1O [Example 29, (1R)-1-[[2-chloro-9-[(2R,3R,4S)-3,4-dihydroxytetrahydrothiophen-2-yl]purin-6-yl]amino]indane-5-carbonitrile] | 50 to 80% | 50 to 80% | > 80% | – |
| COC(=O)c1cccc2c1CC[C@H]2Nc1nc(Cl)nc2c1ncn2[C@@H]1SC[C@@H](O)[C@H]1O [Example 30, Methyl (R)-1-((2-chloro-9-((2R,3R,4S)-3,4-dihydroxytetrahydrothiophen-2-yl)-9H-purin-6-yl)amino)-2,3-dihydro-1H-indene-4-carboxylate] | > 80% | > 80% | > 80% | – |
| NC(=O)c1cccc2c1CC[C@H]2Nc1nc(Cl)nc2c1ncn2[C@@H]1SC[C@@H](O)[C@H]1O [Example 25, (R)-1-((2-chloro-9-((2R,3R,4S)-3,4-dihydroxytetrahydrothiophen-2-yl)-9H-purin-6-yl)amino)-2,3-dihydro-1H-indene-4-carboxamide] | > 80% | > 80% | > 80% | – |
| O[C@@H]1[C@H](O)CS[C@H]1n1cnc2c(N[C@@H]3CCc4cc(F)ccc43)nc(Cl)nc21 [Example 16, (2R,3R,4S)-2-[2-chloro-6-[[(1R)-5-fluoroindan-1-yl]amino]purin-9-yl]tetrahydrothiophene-3,4-diol] | < 20% | < 20% | < 20% | – |
| O[C@@H]1[C@H](O)CS[C@H]1n1cnc2c(NC3Cc4ccccc4C3)nc(Cl)nc21 [Example 7, (2R,3R,4S)-2-[2-chloro-6-(indan-2-ylamino)purin-9-yl]tetrahydrothiophene-3,4-diol] | > 80% | > 80% | > 80% | – |
| Cc1ccc2c(c1)CC[C@H]2Nc1nc(Cl)nc2c1ncn2[C@@H]1SC[C@@H](O)[C@H]1O [Example 27, (2R,3R,4S)-2-[2-chloro-6-[[(1R)-5-methylindan-1-yl]amino]purin-9-yl]tetrahydrothiophene-3,4-diol] | > 80% | > 80% | > 80% | – |
| O[C@@H]1[C@H](O)CS[C@H]1n1cnc2c(N[C@H]3CCc4ccccc43)nc(Cl)nc21 [Example 10, (2R,3R,4S)-2-[2-chloro-6-[[(1S)-indan-1-yl]amino]purin-9-yl]tetrahydrothiophene-3,4-diol] | > 80% | > 80% | > 80% | – |
| NC(=O)c1ccc2c(c1)CC[C@H]2Nc1nc(Cl)nc2c1ncn2[C@@H]1SC[C@@H](O)[C@H]1O [Example 34, (R)-1-((2-chloro-9-((2R,3R,4S)-3,4-dihydroxytetrahydrothiophen-2-yl)-9H-purin-6-yl)amino)-2,3-dihydro-1H-indene-5-carboxamide] | > 80% | > 80% | – | + + |
| COc1cccc2c1[C@H](Nc1nc(Cl)nc3c1ncn3[C@@H]1SC[C@@H](O)[C@H]1O)CC2 [Example 14, (2R,3R,4S)-2-[2-chloro-6-[[(1R)-7-methoxyindan-1-yl]amino]purin-9-yl]tetrahydrothiophene-3,4-diol] | 50 to 80% | 50 to 80% | 50 to 80% | – |
